Results reported in patent US7786108B2, “Compounds and method for treating dyslipidemia” (Eli Lilly and Company, priority 2004, dated 2010).

What was measured:
[1] = tested on: transgenic mice that express both human CETP and human apolipoprotein A-1; assay: In vivo assay of plasma lipids: elevation of HDL cholesterol; details: Mus musculus; single oral dose 30 mg/kg; HDL cholesterol in serum at 8 hr after administration; relative to a control; read-out: % HDL cholesterol increase
Description: Additional serum lipids can be analyzed by enzymatic methods.

| melting point | Structure (SMILES) | change in vivo at 30 mg/kg [1] |
| --- | --- | --- |
| 95 to 98 °C | Cc1cc2c(cc1C(F)(F)F)N(Cc1ccc(C(=O)O)cc1)CCC[C@@H]2N(Cc1cc(C(F)(F)F)cc(C(F)(F)F)c1)c1nnn(C)n1 [Example 89, (S)-4-{5-[(3,5-Bis-trifluoromethyl-benzyl)-(2-methyl-2H-tetrazol-5-yl)-amino]-7-methyl-8-trifluoromethyl-2,3,4,5-tetrahydro-benzo[b]azepin-1-ylmethyl}-benzoic acid] | 186% |
| 83 to 86 °C | Cc1cc2c(cc1C(F)(F)F)N(Cc1cccc(C(=O)O)c1)CCC[C@@H]2N(Cc1cc(C(F)(F)F)cc(C(F)(F)F)c1)c1nnn(C)n1 [Example 91, (S)-3-{5-[(3,5-Bis-trifluoromethyl-benzyl)-(2-methyl-2H-tetrazol-5-yl)-amino]-7-methyl-8-trifluoromethyl-2,3,4,5-tetrahydro-benzo[b]azepin-1-ylmethyl}-benzoic acid] |  |
